Read-outs that look alike come from different tables or passages of the source.
Key:
SMN2 mRNA = test: In vitro cell-free splicing assay for inclusion of exon 7; format: biochemical
Procedure: The following example illustrates how tetracycline compound of the invention are active in an in vitro cell-free assay for the inclusion of exon 7 in […] mRNA. SMN1 and SMN2 pre-mRNA were prepared by in vitro transcription using T7 RNA polymerase of minigene templates that include exon 6, a truncated portion of intron 6, exon 7, intron 7 and a portion of exon 8 in the presence of ^32P-UTP. Labeled RNA was purified on a denaturing polyacrylamide gel followed by phenol extraction and ethanol precipitation of the RNA.
In vitro cell-free splicing of SMN1 and SMN2 transcripts was carried out in a 10 μl reaction volume at 30° C. for 3 hours. The reactions contained 10 fmol of labeled pre-mRNA, 30% (3 VI) HeLa cell nuclear extract (in 20 mM HEPES, pH 7.4, 20% (v/v) glycerol, 0.1M KC1, 0.2 mM EDTA), 1.3% (w/v) polyvinyl alcohol, 1.56 mM MgCl2, 32 mM HEPES, pH 7.4, 0.5 mM ATP, 20 mM creatine phosphate and either 2 μl of test compound (in 20 mM HEPES, pH 7.4, 0.1M KC1, 0.2 mM EDTA) or buffer alone. Following incubation, 200 μl of a solution containing 0.3M NaAc and 0.2% SDS was added to the reaction. Proteins were removed by extraction with an equal volume of phenol and RNA was precipitated with 2.5 volumes of ethanol. RNA was resuspended in formamide sample buffer and separated on a 9% urea-denaturing polyacrylamide gel. Quantitation of splicing was based on phosphorimage analysis (Fujix BAS2000 or Fujifilm FLA-5100). In this assay, percentage exon 7 inclusion averages 12% for the unmutated SMN1 mRNA and 4% for the SMN2 mRNA.
The in vitro activities for exon 7 splicing are expressed as the Emax (the maximum percentage exon 7 inclusion observed) and Cmax (the lowest compound concentration at which the maximum inclusion occurs in μM). For Emax, percentage inclusion values of less than 10% are indicated by “*”, values of 10-20% are indicated by “**”, and values greater than 20% are indicated by “***”. For Cmax data, concentrations of greater than 40 μM are indicated by “*”, concentrations between 40 and 10 μM are represented by “**” and concentrations of less than 10 μM are represented by “***”.

S. aureus (SA RN450) = test: Antibacterial MIC, gram positive; format: cell-based; conditions: CLSI methodology, 35° C., 18-24 hours
E. coli (EC D1-209) = test: Antibacterial MIC, gram negative; format: cell-based; conditions: CLSI methodology, 35° C., 18-24 hours
[1] = HeLa cell nuclear extract, 30° C., 3 hours

Compound	MIC Gram Positive (SA RN450) (S. aureus (SA RN450))	MIC Gram Negative (EC D1-209) (E. coli (EC D1-209))	also measured
CN(C)C1C(O)=C(C(N)=O)C(=O)C2(O)C(O)=C3C(=O)c4c(O)ccc(-c5cccc(C=CC#N)c5)c4CC3CC12 (centres unmarked) [CO]	–	–	Cmax (lowest compound concentration at which the maximum exon 7 inclusion occurs) (SMN2 mRNA; [1]): ** (concentrations between 40 and 10 μM); Emax (maximum percentage exon 7 inclusion observed) (SMN2 mRNA; [1]): ** (values of 10-20%)
CN(C)CCCN(C)Cc1cccc(-c2ccc(O)c3c2C[C@H]2C[C@H]4[C@H](N(C)C)C(O)=C(C(N)=O)C(=O)[C@@]4(O)C(O)=C2C3=O)c1 [Compound CU, (4S,4aS,5aR,12aS)-4-Dimethylamino-7-(3-{[(3-dimethylamino-propyl)-methyl-amino]-methyl}-phenyl)-3,10,12,12a-tetrahydroxy-1,11-dioxo-1,4,4a,5,5a,6,11,12a-octahydro-naphthacene-2-carboxylic Acid Amide]	–	–	Cmax (lowest compound concentration at which the maximum exon 7 inclusion occurs) (SMN2 mRNA; [1]): *** (concentrations of less than 10 μM); Emax (maximum percentage exon 7 inclusion observed) (SMN2 mRNA; [1]): ** (values of 10-20%)
COCC(=O)c1ccc(O)c2c1CC1CC3C(N(C)C)C(O)=C(C(N)=O)C(=O)C3(O)C(O)=C1C2=O (centres unmarked) [BW]	*** (Good antibacterial activity (e.g., less than about 4 μg/mL))	* (weak antibacterial activity (greater than about 8 μg/mL))	–
CN(C)CCC(=NOC(C)(C)C)c1ccc(O)c2c1CC1CC3C(N(C)C)C(O)=C(C(N)=O)C(=O)C3(O)C(O)=C1C2=O (centres unmarked) [Compound CJ]	*** (Good antibacterial activity (e.g., less than about 4 μg/mL))	* (weak antibacterial activity (greater than about 8 μg/mL))	–
CN(C)C1C(O)=C(C(N)=O)C(=O)C2(O)C(O)=C3C(=O)c4c(O)ccc(-c5cccc(C(=O)NCCN6CCOCC6)c5)c4CC3CC12 (centres unmarked) [CP]	–	–	Cmax (lowest compound concentration at which the maximum exon 7 inclusion occurs) (SMN2 mRNA; [1]): ** (concentrations between 40 and 10 μM); Emax (maximum percentage exon 7 inclusion observed) (SMN2 mRNA; [1]): *** (values greater than 20%)
CC(=O)Nc1cccc(-c2ccc(O)c3c2CC2CC4C(N(C)C)C(O)=C(C(N)=O)C(=O)C4(O)C(O)=C2C3=O)c1 (centres unmarked) [AO]	*** (Good antibacterial activity (e.g., less than about 4 μg/mL))	* (weak antibacterial activity (greater than about 8 μg/mL))	–
COCCNCc1ccc(-c2ccc(O)c3c2CC2CC4C(N(C)C)C(O)=C(C(N)=O)C(=O)C4(O)C(O)=C2C3=O)cc1 (centres unmarked) [BG]	*** (Good antibacterial activity (e.g., less than about 4 μg/mL))	*** (Good antibacterial activity (e.g., less than about 4 μg/mL))	–
CCCCNC(=O)c1cccc(-c2ccc(O)c3c2CC2CC4C(N(C)C)C(O)=C(C(N)=O)C(=O)C4(O)C(O)=C2C3=O)c1 (centres unmarked) [F]	*** (Good antibacterial activity (e.g., less than about 4 μg/mL))	* (weak antibacterial activity (greater than about 8 μg/mL))	–
COC(=O)c1ccc(-c2ccc(O)c3c2CC2CC4C(N(C)C)C(O)=C(C(N)=O)C(=O)C4(O)C(O)=C2C3=O)cc1 (centres unmarked) [AR]	*** (Good antibacterial activity (e.g., less than about 4 μg/mL))	* (weak antibacterial activity (greater than about 8 μg/mL))	–
CCOC(=O)N1CCN(CC(=O)c2ccc(O)c3c2CC2CC4C(N(C)C)C(O)=C(C(N)=O)C(=O)C4(O)C(O)=C2C3=O)CC1 (centres unmarked) [BR]	*** (Good antibacterial activity (e.g., less than about 4 μg/mL))	* (weak antibacterial activity (greater than about 8 μg/mL))	–
CN(CCOC(C)(C)C)Cc1cccc(-c2ccc(O)c3c2CC2CC4C(N(C)C)C(O)=C(C(N)=O)C(=O)C4(O)C(O)=C2C3=O)c1 (centres unmarked) [BM]	*** (Good antibacterial activity (e.g., less than about 4 μg/mL))	** (modest antibacterial activity (between about 4 and 8 μg/mL))	–
COC(C)CNCC(=O)c1ccc(O)c2c1CC1CC3C(N(C)C)C(O)=C(C(N)=O)C(=O)C3(O)C(O)=C1C2=O (centres unmarked) [CA]	*** (Good antibacterial activity (e.g., less than about 4 μg/mL))	* (weak antibacterial activity (greater than about 8 μg/mL))	–
CN(C)CC(=O)Nc1ccc(-c2ccc(O)c3c2CC2CC4C(N(C)C)C(O)=C(C(N)=O)C(=O)C4(O)C(O)=C2C3=O)cc1 (centres unmarked) [BC]	*** (Good antibacterial activity (e.g., less than about 4 μg/mL))	*** (Good antibacterial activity (e.g., less than about 4 μg/mL))	–
CN(C)C1C(O)=C(C(N)=O)C(=O)C2(O)C(O)=C3C(=O)c4c(O)ccc(C(=O)Cn5ccnc5)c4CC3CC12 (centres unmarked) [CF]	** (modest antibacterial activity (between about 4 and 8 μg/mL))	* (weak antibacterial activity (greater than about 8 μg/mL))	–
CN(C)C1C(O)=C(C(N)=O)C(=O)C2(O)C(O)=C3C(=O)c4c(O)ccc(-c5cccc(C(N)=O)c5)c4CC3CC12 (centres unmarked) [AE]	*** (Good antibacterial activity (e.g., less than about 4 μg/mL))	* (weak antibacterial activity (greater than about 8 μg/mL))	–
CN(C)CCNC(=O)c1ccc(-c2ccc(O)c3c2CC2CC4C(N(C)C)C(O)=C(C(N)=O)C(=O)C4(O)C(O)=C2C3=O)cc1 (centres unmarked) [AD]	*** (Good antibacterial activity (e.g., less than about 4 μg/mL))	* (weak antibacterial activity (greater than about 8 μg/mL))	–
CN(C)CCCNC(=O)c1ccc(-c2ccc(O)c3c2CC2CC4C(N(C)C)C(O)=C(C(N)=O)C(=O)C4(O)C(O)=C2C3=O)cc1 (centres unmarked) [AA]	** (modest antibacterial activity (between about 4 and 8 μg/mL))	* (weak antibacterial activity (greater than about 8 μg/mL))	–
CN(C)CCNC(=O)c1cccc(-c2cc(N(C)C)c3c(c2O)C(=O)C2=C(O)[C@]4(O)C(=O)C(C(N)=O)=C(O)[C@@H](N(C)C)[C@@H]4C[C@@H]2C3)c1 [Compound V, (4S,4aS,5aR,12aS)-4,7-Bis-dimethylamino-9-[3-(2-dimethylamino-ethylcarbamoyl)-phenyl]-3,10,12,12a-tetrahydroxy-1,11-dioxo-1,4,4a,5,5a,6,11,12a-octahydro-naphthacene-2-carboxylic Acid Amide]	–	–	MIC (S. aureus (SA RN450); Staphylococcus aureus): > 8 µg/mL; MIC (E. coli (EC D1-209); Escherichia coli): > 8 µg/mL
CN(C)CCCCNCc1cccc(-c2ccc(O)c3c2CC2CC4C(N(C)C)C(O)=C(C(N)=O)C(=O)C4(O)C(O)=C2C3=O)c1 (centres unmarked) [CV]	–	–	Cmax (lowest compound concentration at which the maximum exon 7 inclusion occurs) (SMN2 mRNA; [1]): *** (concentrations of less than 10 μM); Emax (maximum percentage exon 7 inclusion observed) (SMN2 mRNA; [1]): ** (values of 10-20%)
CN(C)CCCNCc1cccc(-c2ccc(O)c3c2CC2CC4C(N(C)C)C(O)=C(C(N)=O)C(=O)C4(O)C(O)=C2C3=O)c1 (centres unmarked) [CX]	–	–	Cmax (lowest compound concentration at which the maximum exon 7 inclusion occurs) (SMN2 mRNA): *** (key: *: concentrations of greater than 40 μM; **: concentrations between 40 and 10 μM; ***: concentrations of less than 10 μM); Emax (maximum percentage exon 7 inclusion observed) (SMN2 mRNA): ** (key: *: percentage inclusion values of less than 10%; **: values of 10-20%; ***: values greater than 20%)
CN(C)CCCCN(C)Cc1cccc(-c2ccc(O)c3c2CC2CC4C(N(C)C)C(O)=C(C(N)=O)C(=O)C4(O)C(O)=C2C3=O)c1 (centres unmarked) [CW]	–	–	Cmax (lowest compound concentration at which the maximum exon 7 inclusion occurs) (SMN2 mRNA; [1]): *** (concentrations of less than 10 μM); Emax (maximum percentage exon 7 inclusion observed) (SMN2 mRNA; [1]): ** (values of 10-20%)
CN(C)CCN(C)Cc1cccc(-c2ccc(O)c3c2CC2CC4C(N(C)C)C(O)=C(C(N)=O)C(=O)C4(O)C(O)=C2C3=O)c1 (centres unmarked) [CT]	–	–	Cmax (lowest compound concentration at which the maximum exon 7 inclusion occurs) (SMN2 mRNA): ** (concentrations between 40 and 10 μM); Emax (maximum percentage exon 7 inclusion observed) (SMN2 mRNA): ** (values of 10-20%)
CN(C)C1C(O)=C(C(N)=O)C(=O)C2(O)C(O)=C3C(=O)c4c(O)ccc(-c5cccc(C(=O)NCCN6CCCC6)c5)c4CC3CC12 (centres unmarked) [CR]	–	–	Cmax (lowest compound concentration at which the maximum exon 7 inclusion occurs) (SMN2 mRNA): ** (key: *: concentrations of greater than 40 μM; **: concentrations between 40 and 10 μM; ***: concentrations of less than 10 μM); Emax (maximum percentage exon 7 inclusion observed) (SMN2 mRNA): *** (key: *: percentage inclusion values of less than 10%; **: values of 10-20%; ***: values greater than 20%)
COCCCNC(=O)c1cccc(-c2ccc(O)c3c2CC2CC4C(N(C)C)C(O)=C(C(N)=O)C(=O)C4(O)C(O)=C2C3=O)c1 (centres unmarked) [CQ]	–	–	Cmax (lowest compound concentration at which the maximum exon 7 inclusion occurs) (SMN2 mRNA; [1]): * (concentrations of greater than 40 μM); Emax (maximum percentage exon 7 inclusion observed) (SMN2 mRNA; [1]): ** (values of 10-20%)
CN(C)CCNCc1cccc(-c2ccc(O)c3c2CC2CC4C(N(C)C)C(O)=C(C(N)=O)C(=O)C4(O)C(O)=C2C3=O)c1 (centres unmarked) [CS]	–	–	Cmax (lowest compound concentration at which the maximum exon 7 inclusion occurs) (SMN2 mRNA): *** (key: *: concentrations of greater than 40 μM; **: concentrations between 40 and 10 μM; ***: concentrations of less than 10 μM); Emax (maximum percentage exon 7 inclusion observed) (SMN2 mRNA): ** (key: *: percentage inclusion values of less than 10%; **: values of 10-20%; ***: values greater than 20%)

— US7935687B2, “Methods for treating spinal muscular atrophy using tetracycline compounds” (Paratek Pharmaceuticals, Inc., priority 2007, dated 2011)
